Here are results for 22 molecules from ChEMBL document CHEMBL1122090, “Species- or isozyme-specific enzyme inhibitors. 7. Selective effects in inhibitions of rat adenylate kinase isozymes by adenosine 5'-phosphate derivatives” (J Med Chem, 1982).

For test [1], the target named is Adenylate kinase 2, mitochondrial (Rattus norvegicus) (UniProt P29410). Briefly: Relative Vmax value to rat adenylate kinase II.
Test [2] addresses GTP:AMP phosphotransferase AK3, mitochondrial (Rattus norvegicus) (UniProt P29411). The experiment in a line: Relative Vmax value to rat adenylate kinase III.
Test [3] in a line: Relative inhibition index was the ratio between AK-M and AK III. Format: functional.
For test [4], the target named is T1, Adenylate kinase isoenzyme 1 (Rattus norvegicus) (UniProt P39069).
T1 sequence (whole entry): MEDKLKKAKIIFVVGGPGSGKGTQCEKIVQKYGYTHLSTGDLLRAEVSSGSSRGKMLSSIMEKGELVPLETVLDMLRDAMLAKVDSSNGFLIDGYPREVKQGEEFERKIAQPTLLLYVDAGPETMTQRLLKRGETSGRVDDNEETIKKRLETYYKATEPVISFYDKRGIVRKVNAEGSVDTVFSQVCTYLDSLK
Briefly: Inhibition index was the ratio between KM of AMP and Ki of AK M. Format: functional.

Test [5] concerns the target GTP:AMP phosphotransferase AK3, mitochondrial (Rattus norvegicus) (UniProt P29411). Briefly: Inhibition index was the ratio between KM of AMP and Ki of AK III. Format: functional.
Test [6] is described as follows: Relative inhibition index was the ratio between AK-M and AK II. Format: functional.
The target of test [7] is T1, Adenylate kinase isoenzyme 1 (Rattus norvegicus). The experiment in a line: Relative Vmax value to Adenylate kinase M isoenzyme (adenylate kinase 1, AK1).
In test [8] the target is Adenylate kinase 2, mitochondrial (Rattus norvegicus) (UniProt P29410). Briefly: Inhibition index was the ratio between KM of AMP and Ki of AK II. Format: functional.

SMILES strings stand for the structures.

Chain of GTP:AMP phosphotransferase AK3, mitochondrial (Rattus norvegicus) (P29411 whole entry): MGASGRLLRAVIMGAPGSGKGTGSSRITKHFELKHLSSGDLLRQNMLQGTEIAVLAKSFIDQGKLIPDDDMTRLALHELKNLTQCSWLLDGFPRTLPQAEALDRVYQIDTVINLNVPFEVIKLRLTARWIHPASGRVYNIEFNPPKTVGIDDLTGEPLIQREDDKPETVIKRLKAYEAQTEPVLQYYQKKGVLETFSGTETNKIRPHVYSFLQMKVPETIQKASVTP

For the molecule `C=CC[C@]1(COP(=O)(O)O)OC(n2cnc3c(N)ncnc32)[C@H](O)[C@@H]1O` (some centres not stated), the Relative Vmax in test [1], in test [2] and in test [7] was over 0 each time. Moreover, the Relative inhibition index in test [3] was determined as 8.1; in test [6], 4.6. Besides, the results for the Inhibition index in test [4], in test [5] and in test [8] were 0.97, 0.12 and 0.21, respectively.
With `Nc1ncnc2c1ncn2C(CO)OC(CO)COP(=O)(O)O` (configuration not stated), the Relative Vmax in test [1], in test [2] and in test [7] was 0 each time.
For `CCNc1nc(N)c2ncn([C@@H]3O[C@H](COP(=O)(O)O)[C@@H](O)[C@H]3O)c2n1`, the Relative Vmax in test [2] is 2.7; in test [7], 0.4. Besides, the Relative inhibition index in test [3] worked out at 9.3. Besides, the Inhibition index in test [4] is 0.14; in test [5] it was 0.015.
For `C[C@@H](OP(=O)(O)O)[C@H]1OC(n2cnc3c(N)ncnc32)[C@H](O)[C@@H]1O` (some centres not stated), the Relative Vmax in test [1] was over 0; in test [2], over 0; in test [7], 0. Also, the Inhibition index was found to be 0.008 in test [5] and 0.0082 in test [8].
Turning to `CC1O[C@@H]2[C@H](O1)[C@@H](COP(=O)(O)O)O[C@H]2n1cnc2c(N)ncnc21` (some centres not stated), the Relative Vmax in test [1], in test [2] and in test [7] was 0 throughout. Besides, the Relative inhibition index in test [3] came to 4.6; in test [6], 4.3. Further, the values for the Inhibition index in test [4], in test [5] and in test [8] were 0.13, 0.028 and 0.03, respectively.
Regarding `CC[C@@H](OP(=O)(O)O)[C@H]1OC(n2cnc3c(N)ncnc32)[C@H](O)[C@@H]1O` (some centres not stated), the Relative Vmax in test [1], in test [2] and in test [7] was 0 each time. For the same molecule, the Inhibition index in test [5] and in test [8] was 0.015 in each case.
Consider `COP(=O)(O)C[C@H]1OC(n2cnc3c(N)ncnc32)[C@H](O)[C@@H]1O` (some centres not stated), for which the Relative Vmax in test [1], in test [2] and in test [7] was 0 in each case.
For `CNc1nc(N)c2ncn([C@@H]3O[C@H](COP(=O)(O)O)[C@@H](O)[C@H]3O)c2n1`, the Relative Vmax in test [1] amounted to 9.7; in test [2] it was 10; in test [7], 0.7. Besides, the Relative inhibition index in test [3] turned out to be 9.1; in test [6], 7.4. Moreover, the results for the Inhibition index in test [4], in test [5] and in test [8] were 0.2, 0.022 and 0.027, respectively.
On to `Nc1nc(Cl)nc2c1ncn2[C@@H]1O[C@H](COP(=O)(O)O)[C@@H](O)[C@H]1O`, for which the Relative Vmax was 5.8 in test [1], 7.5 in test [2] and 0.13 in test [7]. The Relative inhibition index in test [3] and in test [6] was 4.2 each time. Besides, the Inhibition index in test [4] is 0.21; in test [5], 0.05; in test [8] it was 0.05.
With `Nc1ncnc2c1ncn2[C@@H]1O[C@H](CCP(=O)(O)O)[C@@H](O)[C@H]1O`, the Relative Vmax in test [1] is 11.2; in test [2], 21; in test [7], 2.2. Also, the values for the Relative inhibition index in test [3] and in test [6] were 3.9 and 4.4, respectively. Besides, the results for the Inhibition index in test [4], in test [5] and in test [8] were 0.14, 0.036 and 0.032, respectively.
Regarding `CC(=O)NCCNc1ncnc2c1ncn2C1O[C@H](COP(=O)(O)O)[C@@H](O)[C@H]1O` (some centres not stated), the Relative Vmax in test [1], in test [2] and in test [7] was 0 throughout.
As to `Nc1ncnc2c1nc(Br)n2[C@@H]1O[C@H](COP(=O)(O)O)[C@@H](O)[C@H]1O`, the Relative Vmax in test [1], in test [2] and in test [7] was 0 in each case.
Take `Cn1cnc2c(ncn2[C@@H]2O[C@H](COP(=O)(O)O)[C@@H](O)[C@H]2O)c1=N`: the Relative Vmax in test [1], in test [2] and in test [7] was 0 throughout.
For `CSc1nc(N)c2ncn([C@@H]3O[C@H](COP(=O)(O)O)[C@@H](O)[C@H]3O)c2n1`, the Relative Vmax in test [1], in test [2] and in test [7] was over 0 each time.
Turning to `Nc1nc(N)c2ncn([C@@H]3O[C@H](COP(=O)(O)O)[C@@H](O)[C@H]3O)c2n1`, the Relative Vmax in test [1] was found to be 18; in test [2], 24; in test [7], 7.1. The Relative inhibition index in test [3] turned out to be 4; in test [6], 3.4. For the same molecule, the Inhibition index in test [4] is 0.17; in test [5], 0.042; in test [8], 0.05.
For the molecule `CC1(C)O[C@@H]2[C@H](O1)[C@@H](COP(=O)(O)O)O[C@H]2n1cnc2c(N)ncnc21`, the Relative Vmax in test [1], in test [2] and in test [7] was 0 each time. The Relative inhibition index is 5.7 in test [3] and 6.6 in test [6]. In addition, the Inhibition index in test [4] came out at 0.25; in test [5] it was 0.044; in test [8] it was 0.038.
Take `CCC1O[C@@H]2[C@H](O1)[C@@H](COP(=O)(O)O)O[C@H]2n1cnc2c(N)ncnc21` (some centres not stated): the Relative Vmax in test [1], in test [2] and in test [7] was 0 in each case. The values for the Relative inhibition index in test [3] and in test [6] were 2.8 and 3, respectively. Besides, the Inhibition index in test [4] came out at 0.089; in test [5], 0.032; in test [8], 0.03.
Take `CCC[C@@H](OP(=O)(O)O)[C@H]1OC(n2cnc3c(N)ncnc32)[C@H](O)[C@@H]1O` (some centres not stated): the Relative Vmax in test [1], in test [2] and in test [7] was 0 each time. Further, the values for the Inhibition index in test [5] and in test [8] were 0.021 and 0.025, respectively.
Turning to `CCSc1nc2c(N)ncnc2n1C1O[C@H](COP(=O)(O)O)[C@@H](O)[C@H]1O` (some centres not stated), the Relative Vmax in test [1], in test [2] and in test [7] was 0 each time.
For the molecule `Nc1ncnc2c1ncn2[C@@H]1O[C@H](COP(=O)(O)O)[C@@H](O)[C@H]1O`, the Relative Vmax in test [1], in test [2] and in test [7] was 100 throughout.
As for `C[C@@H]1[C@H](O)[C@@H](COP(=O)(O)O)O[C@H]1n1cnc2c(N)ncnc21`, the Relative Vmax turned out to be 29 in test [1], 21 in test [2] and 5.6 in test [7]. For the same molecule, the Relative inhibition index in test [3] came out at 1.1; in test [6] it was 1.2. Moreover, the Inhibition index in test [4] came to 0.11; in test [5], 0.1; in test [8] it was 0.088.
On to `Nc1ncnc2c1ncn2[C@@H]1O[C@H](COS(=O)(=O)O)[C@@H](O)[C@H]1O`, for which the Relative Vmax in test [1], in test [2] and in test [7] was 0 in each case. Further, in test [3], the Relative inhibition index stood at 1.1. Besides, the figures for the Inhibition index in test [4] and in test [5] were 0.12 and 0.11, respectively.
